PMC5477544, “Structural and mechanistic basis of differentiated inhibitors of the acute pancreatitis target kynurenine-3-monooxygenase” (Nature Communications, 2017)
Read-outs that look alike come from different tables or passages of the source. Values belong to the compound of their own block, whether it stands above or below them.

Experiments:
Type in all cases: biochemical
human KMO [1] = target: T1, human KMO (Homo sapiens, UniProt O15229); experiment: Hydrogen peroxide formation, HRP/Amplex Red assay, human KMO
T1 construct: full-length human KMO was cloned as an N-terminal GST fusion; GST (N); made in house; host or cells: Sf9 insect cells, used as a membrane fraction
T1 sequence (O15229 whole entry, the tested form may be a part): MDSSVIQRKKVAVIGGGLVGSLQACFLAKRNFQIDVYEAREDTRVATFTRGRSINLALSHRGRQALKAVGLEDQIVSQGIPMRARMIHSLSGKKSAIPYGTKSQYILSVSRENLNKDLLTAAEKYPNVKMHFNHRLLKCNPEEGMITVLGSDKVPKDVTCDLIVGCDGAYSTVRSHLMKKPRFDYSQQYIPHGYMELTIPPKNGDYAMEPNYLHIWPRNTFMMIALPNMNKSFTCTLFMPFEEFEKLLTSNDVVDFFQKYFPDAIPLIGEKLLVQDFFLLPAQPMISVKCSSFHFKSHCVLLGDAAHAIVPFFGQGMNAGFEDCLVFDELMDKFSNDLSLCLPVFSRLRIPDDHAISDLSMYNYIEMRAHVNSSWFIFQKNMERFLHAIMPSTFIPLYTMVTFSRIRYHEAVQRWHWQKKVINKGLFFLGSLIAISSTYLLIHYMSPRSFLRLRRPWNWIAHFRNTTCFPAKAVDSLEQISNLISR
Experimental: (§1) Measurements were performed in a buffer of 50 mM Hepes pH 7.5, 0.1 mM Chaps. A two-fold dilution series of test inhibitor and control compounds was prepared from DMSO solutions using the Hewlett-Packard D300 digital dispenser in a 384-well plate and normalized to a final DMSO concentration of 1% in the assay. 10 μl of 80 μg ml^−1 human KMO or 40 nM Pf-KMO were added. After 15 min incubation, 10 μl of a substrate/detection mix (2 U ml^−1 HRP, 20 μM Amplex Red, 40 μM NADPH) were added and the plate was read kinetically on a Tecan M1000 fluorescent plate reader with excitation wavelength 530 nm and emission wavelength 580 nm. A calibration curve comprising a two-fold dilution series of resorufin from 20 μM top concentration was included on the plate, and used to convert assay data to concentration of resorufin formed. Initial rate (μM min^−1) was extracted by linear fitting of the early region of each timecourse. Dose responses were fitted to a four parameter logistic expression where appropriate.

Pf KMO [2] = target: T2, Pf KMO (Pseudomonas fluorescens, UniProt Q84HF5, C252S/C461S); experiment: Rapidfire mass spectrometry IC50 assay, Pf-KMO; conditions: from inhibition curves of Fig. 3b; [Pf-KMO]=1 nM, [L-Kyn]=10 μM, [NADPH]=200 μM
T2 construct: Success was made possible by the use of a full-length P. fluorescens orthologue; made in house; host or cells: Escherichia coli BL21 (DE3)
T2 sequence (Q84HF5 whole entry C252S/C461S): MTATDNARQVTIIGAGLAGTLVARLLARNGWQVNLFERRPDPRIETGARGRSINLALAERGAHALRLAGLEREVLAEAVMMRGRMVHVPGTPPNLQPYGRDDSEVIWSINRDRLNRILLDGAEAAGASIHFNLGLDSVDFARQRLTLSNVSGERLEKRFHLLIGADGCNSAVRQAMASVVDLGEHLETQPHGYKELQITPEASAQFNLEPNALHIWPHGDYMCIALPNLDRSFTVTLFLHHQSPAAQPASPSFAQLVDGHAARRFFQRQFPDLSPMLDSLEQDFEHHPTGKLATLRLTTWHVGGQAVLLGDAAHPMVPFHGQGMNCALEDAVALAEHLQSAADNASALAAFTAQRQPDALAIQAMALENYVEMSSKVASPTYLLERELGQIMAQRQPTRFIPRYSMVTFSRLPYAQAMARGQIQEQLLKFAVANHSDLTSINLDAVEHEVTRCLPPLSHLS
Experimental: (§2) Inhibitor IC50 values against isolated human KMO were determined using a Rapidfire mass spectrometry assay as described in Lowe et al.[12] utilizing the Sf9 cell expressed human KMO described above. The inhibitor IC50 values against Pf-KMO were determined using an analogous Rapidfire mass spectrometry assay, utilizing the purified protein described above.

human KMO [3] = target: T1, human KMO; experiment: Association kinetics (onset of inhibition timecourses); design: steady-state rate Vs, onset of inhibition timecourse: unit not given here; conditions: for kobs, onset of inhibition at sub-saturating NADPH: 10 nM GSK775(B2), regeneration system; for kobs, onset of inhibition: 200 μM NADPH, 10 μM L-Kyn
Experimental: For the association kinetics assays, measurements were performed in a buffer of 50 mM Hepes pH 7.5, 2 mM DTT, 1 mM EDTA, 0.1 mM Chaps. Reactions were performed at ambient temperature, by addition of human KMO enzyme to a mixture of L-Kyn and NADPH containing the test inhibitor. […] Aliquots of the mixtures were quenched into 0.5% TFA in water. L-Kyn and 3-HK levels in the quenched samples were measured using the Rapidfire mass spectrometry method described in Lowe et al.[12] Calibration curves for L-Kyn and 3-HK were used to correct for the lower detection response for 3-HK. Per cent turnover and resulting concentration of 3-HK were calculated for each time point in Excel. kobs values for onset of inhibition were obtained by fitting individual timecourses to equation 1 where t=time, vs=steady-state rate, vi=initial rate and c=background[43]. vi was fixed at the uninhibited rate obtained from the slope of the timecourse in the absence of inhibitor.

human KMO [4] = target: T1, human KMO; experiment: Rapidfire mass spectrometry IC50 assay, isolated human KMO
Experimental: For the expression and isolation of human KMO membranes, full-length human KMO was cloned as an N-terminal GST fusion, expressed in Sf9 cells and isolated as a membrane fraction as described in Lowe et al.[12]
as §2

Pf KMO [5] = target: T2, Pf KMO; experiment: Hydrogen peroxide formation, HRP/Amplex Red assay, Pf-KMO
Experimental: as §1

human KMO [6] = target: T1, human KMO; experiment: Dissociation kinetics (recovery of activity timecourses) and full kinetic analysis; design: steady-state rate Vs after equilibration of inhibitor binding, dissociation timecourse: unit not given here
Experimental: The dissociation kinetics measurements were performed in a buffer of 50 mM Hepes pH 7.5, 2 mM DTT, 1 mM EDTA, 0.1 mM Chaps. […] Aliquots of the reaction mixtures were quenched into 0.5% TFA in water. 3-HK levels in the quenched samples were measured using the Rapidfire mass spectrometry assay described in Lowe et al.[12] A calibration curve for 3-HK was used to convert the data to concentration of 3-HK at each time point. kobs values for recovery of activity were obtained by fitting individual timecourses to equation 1 with vi (initial rate) set to zero.
In this analysis, inhibitor kon was fixed at the value obtained in the association kinetic studies, and kcat and inhibitor koff were the two variable parameters.

Pf KMO [7] = target: T2, Pf KMO; experiment: L-Kyn KM determination, Rapidfire mass spectrometry, Pf-KMO
Experimental: (§3) The KM of kynurenine for human KMO and for Pf KMO were measured as described in Lowe et al.[12]. The KM of NADPH for human KMO was measured using a regeneration system as described in Lowe et al.[12], with a kynurenine concentration of 10 μM.

human KMO [8] = target: T1, human KMO; experiment: NADPH KM determination with regeneration system, human KMO; conditions: 10 M Kynurenine (so in the source)
Experimental: as §3

[9] = from inhibition curves of Fig. 3b, read-out: IC50 Human KMO

SMILES: Cc1cc2oc(=O)n(CCC(=O)O)c2cc1Cl [GSK428]
- Generation of hydrogen peroxide (human KMO [1]): stimulate peroxide (H2O2) production
- IC50 (Pf KMO [2]): 60 nM
- steady-state rate Vs, onset of inhibition timecourse (human KMO [3]; 10 nM GSK428(A2), last 5 minutes of timecourse, uninhibited Vi = 0.022): 0.004
- IC50 (human KMO [4]; [9]): 10 nM
- Effect of [L-Kyn] on IC50 (mode of inhibition) (human KMO [4]; human KMO): linear relationship
- Generation of hydrogen peroxide (Pf KMO [5]): stimulate peroxide (H2O2) production
- steady-state rate Vs after equilibration of inhibitor binding, dissociation timecourse (human KMO [6]; last 5 minutes of timecourse in presence of GSK428(A2)): 0.147

SMILES: Nc1ccccc1C(=O)CC(N)C(=O)O [L-Kyn, L-kynurenine]
- kcat (Pf KMO [7]; 200 μM NADPH): 2.3 s⁻¹
- Km (Pf KMO [7]; read-out: L-Kyn KM, 200 μM NADPH): 7 µM

- Km (human KMO [8]): 1 µM
SMILES: NC(=O)C1=CN([C@@H]2O[C@H](COP(=O)(O)OP(=O)(O)OC[C@H]3O[C@@H](n4cnc5c(N)ncnc54)[C@H](OP(=O)(O)O)[C@@H]3O)[C@@H](O)[C@H]2O)C=CC1 [NADPH]

- mean slope of inhibition curve (human KMO [4]; human enzyme): 1.9
SMILES: C[C@@H](Oc1cc2onc(CCC(=O)O)c2cc1Cl)c1ccccn1 [GSK065]

- kobs, onset of inhibition at sub-saturating NADPH (human KMO [3]; 1 uM NADPH): 0.035 min⁻¹
- kobs, onset of inhibition at sub-saturating NADPH (human KMO [3]; 0.3 M NADPH (so in the source)): 0.013 min⁻¹
- kobs, onset of inhibition at sub-saturating NADPH (human KMO [3]; 5 M NADPH (so in the source)): 0.069 min⁻¹
- kobs, onset of inhibition (human KMO [3]; 10 nM inhibitor): 0.062 min⁻¹
- onset kobs, times slower than for GSK428(A2) (human KMO [3]; same concentration conditions): at least 10 times
- dissociation half life of KMO-inhibitor complex (human KMO [6]; human KMO): ~2 h
SMILES: C[C@@H](Oc1cc2oc(=O)n(CCC(=O)O)c2cc1Cl)c1ccccn1 [GSK775]

SMILES: O=C(O)CCn1c(=O)oc2cc(OCc3ccccn3)c(Cl)cc21 [GSK891]
- IC50 (Pf KMO [2]): 4.3 nM
- IC50 (human KMO [4]; [9]): 3.6 nM

SMILES: Cc1ccc([C@@H](C)Oc2cc3onc(CCC(=O)O)c3cc2Cl)nn1 [GSK366]
- IC50 (Pf KMO [2]): 0.7 nM
- kobs, onset of inhibition (human KMO [3]; 5 nM inhibitor): 0.031 min⁻¹
- IC50 (human KMO [4]; [9]): 2.3 nM
- mean slope of inhibition curve (human KMO [4]; human enzyme): 1.9
- IC50 (human KMO [4]; human enzyme, mean of n determinations given in text, read-out: IC50 (mean potency, in vitro activity)): 2 nM
